{"source": "patent US7605173B2", "about": "“Pharmaceutical liquid composition containing pyridone derivative” (KDL, Inc., priority 2002, dated 2009)", "key": {"[1]": {"assay": "Dissolving Pirfenidone in diethylene glycol monoethyl ether (attainable concentration)", "format": "physicochemical", "details": "solvent diethylene glycol monoethyl ether", "method": "That is, the diethylene glycol monoethyl ether was charged to a suitable container and warmed to 60° C. The Pirfenidone was added while stirring and a yellowish solution was obtained by continuing the stirring until the mixture was transparent. All the remaining ingredients as listed in Table 1 were dissolved in water at 60° C. and this solution was poured into the above Pirfenidone solution and the stirring was continued until mixed uniformly. The so obtained solution was protected from the light.\nThat is, the diethylene glycol monoethyl ether was charged to a suitable container and warmed to 60° C., and the Pirfenidone was added while stirring and a yellowish solution was obtained by continuing the stirring until the whole became transparent. Furthermore, the α-tocopherol was added and water was added while stirring until mixed uniformly. Then, the hydroxypropyl cellulose was added because of its necessity and stirred until a homogenous dispersion was formed. Furthermore, the dispersion was allowed to stand overnight until the particles of hydroxypropyl cellulose, the concentrating agent, were expanded, and finally the product was homogenized. The so obtained dispersion was allowed to stand overnight and a solution in the desired concentration was obtained. The solution was homogenized again and protected from light."}, "[2]": {"details": "cited from earlier work"}}, "data": [{"smiles": "Cc1ccc(=O)n(-c2ccccc2)c1", "note": "[Pirfenidone, 5-methyl-1-phenyl-2-(1H)-pyridone]", "values": [{"measurement": "concentration of Pirfenidone that can be dissolved", "setting": "[1]", "value": "~25", "unit": "% by weight"}, {"measurement": "solubility in water", "setting": "[2]", "value": "slightly soluble in water"}]}]}
